Measurements as given in patent US20190256474A1, “N-PHENYL-2-(3-PHENYL-6-OXO-1,6-DIHYDROPYRIDAZIN-1-YL)ACETAMIDE DERIVATIVES FOR TREATING CYSTIC FIBROSIS” (Proteostasis Therapeutics, Inc., priority 2016, published 2019).

Biological target: T1, ΔF508-CFTR (Homo sapiens, UniProt P13569, DEL508-508)
T1 construct: Primary lung epithelial cells homozygous for the Cystic Fibrosis-causing ΔF508 mutation were differentiated; endogenous in cells; host or cells: primary human bronchial epithelial cells (hBE), ΔF508/ΔF508
T1 sequence (P13569 with tags, fused parts or gaps DEL508-508): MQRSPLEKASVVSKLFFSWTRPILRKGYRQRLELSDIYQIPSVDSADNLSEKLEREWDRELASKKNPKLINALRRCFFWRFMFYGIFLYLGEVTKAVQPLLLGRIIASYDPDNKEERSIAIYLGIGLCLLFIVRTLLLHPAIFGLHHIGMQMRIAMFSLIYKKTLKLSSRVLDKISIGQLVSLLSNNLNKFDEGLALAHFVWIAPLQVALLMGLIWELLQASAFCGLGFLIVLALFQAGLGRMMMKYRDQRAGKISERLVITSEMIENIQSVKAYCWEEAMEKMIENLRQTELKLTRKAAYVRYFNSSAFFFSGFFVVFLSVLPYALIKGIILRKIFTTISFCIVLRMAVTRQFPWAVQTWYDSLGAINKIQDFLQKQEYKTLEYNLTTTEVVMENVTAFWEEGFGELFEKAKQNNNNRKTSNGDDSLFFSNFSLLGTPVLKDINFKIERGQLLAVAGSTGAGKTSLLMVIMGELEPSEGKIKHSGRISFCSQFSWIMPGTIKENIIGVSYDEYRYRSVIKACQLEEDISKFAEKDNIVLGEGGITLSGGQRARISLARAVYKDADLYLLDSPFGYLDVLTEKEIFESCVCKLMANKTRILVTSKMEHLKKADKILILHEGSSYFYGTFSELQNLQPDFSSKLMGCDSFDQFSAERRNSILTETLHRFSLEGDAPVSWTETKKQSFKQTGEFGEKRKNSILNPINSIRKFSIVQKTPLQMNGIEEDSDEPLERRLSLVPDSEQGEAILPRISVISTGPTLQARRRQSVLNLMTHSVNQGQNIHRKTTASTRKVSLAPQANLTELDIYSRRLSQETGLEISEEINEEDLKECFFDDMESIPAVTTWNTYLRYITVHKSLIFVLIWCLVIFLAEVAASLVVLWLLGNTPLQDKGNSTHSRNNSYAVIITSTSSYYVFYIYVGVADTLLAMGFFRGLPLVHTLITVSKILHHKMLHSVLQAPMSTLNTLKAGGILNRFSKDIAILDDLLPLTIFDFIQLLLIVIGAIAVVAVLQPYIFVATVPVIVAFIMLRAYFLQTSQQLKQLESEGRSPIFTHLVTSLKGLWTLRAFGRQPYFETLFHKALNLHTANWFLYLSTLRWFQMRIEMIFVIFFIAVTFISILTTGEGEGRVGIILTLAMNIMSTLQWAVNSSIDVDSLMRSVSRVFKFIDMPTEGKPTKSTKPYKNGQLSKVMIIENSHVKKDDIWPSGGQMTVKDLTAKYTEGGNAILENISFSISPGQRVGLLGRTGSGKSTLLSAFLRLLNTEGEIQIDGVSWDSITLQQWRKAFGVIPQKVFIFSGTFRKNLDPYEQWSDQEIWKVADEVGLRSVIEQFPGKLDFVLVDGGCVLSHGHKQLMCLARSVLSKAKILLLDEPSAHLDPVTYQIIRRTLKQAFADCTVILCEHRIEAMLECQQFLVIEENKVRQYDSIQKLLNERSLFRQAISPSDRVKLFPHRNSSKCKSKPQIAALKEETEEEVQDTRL
Experiment: hBE equivalent current (Ieq) assay, CFTR activity
Format: cell-based
Conditions: relative to a CFTR amplifier at 3 μM, ΔF508 homozygous hBE, 24 h treatment; for Activity 3 μM: compound at 3 μM; for Activity 10 μM: compound at 10 μM
Protocol: Primary lung epithelial cells homozygous for the Cystic Fibrosis-causing ΔF508 mutation were differentiated for a minimum of 4 weeks in an air-liquid interface on Costar 24 well HTS filter plates prior to the equivalent current (Ieq) measurements. Cells were apically mucus-washed for 30 minutes 24 h prior to treatment with compounds. The basolateral media was removed and replaced with media containing the compound of interest diluted to its final concentration from DMSO stocks. Treated cells were incubated at 37° C. and 5% CO2 for 24 hours. At the end of the treatment period, the media was changed to the Ieq experimental solution for 2 hours before the experiment and plates are maintained in a CO2-free incubator during this period. The plates containing the cells were then placed in pre-warmed heating blocks at 36° C.±0.5 for 15 minutes before measurements are taken. The transepithelial voltage (VT) and conductance (GT) were measured using a custom 24 channel current clamp (TECC-24) with 24 well electrode manifold. The Ieq assay measurements were made following additions with standardized time periods:
1. The baseline VT and GT values were measured for approximately 20 minutes.
2. Benzamil was added to block ENaC for 15 minutes.
3. Forskolin plus VX-770 were added to maximally activate ΔF508-CFTR for 27 minutes.
4. Bumetanide was added to inhibit the NaK2Cl cotransporter and shut-off secretion of chloride.
The activity data captured was the area under the curve (AUC) for the traces of the equivalent chloride current. The AUC was collected from the time of the forskolin/VX-770 addition until the inhibition by bumetanide addition. Correction in response to compound treatment was scored as the increase in the AUC for compound-treated samples over that of vehicle-treated samples.
The results are shown below in Table 1. + indicates activity <150% of a CFTR amplifier with compound at concentration shown and amplifier at 3 μM; ++ indicates activity >150% of a CFTR amplifier with compound at concentration shown and amplifier at 3 μM.

Row | SMILES | Activity 3 μM | Activity 10 μM
1 | COc1cccc(-c2nn(C(C)C(=O)Nc3cc(F)cc(F)c3)c(=O)cc2-c2ccccc2)c1 (centres unmarked) [Compound 24, N-(3,5-Difluorophenyl)-2-[3-(3-methoxyphenyl)-6-oxo-4-phenyl-1,6-dihydropyridazin-1-yl]propanamide] | ++ (activity >150% of a CFTR amplifier with compound at concentration shown and amplifier at 3 μM) | ++ (activity >150% of a CFTR amplifier with compound at concentration shown and amplifier at 3 μM)
2 | CC(C(=O)Nc1ccc(C(F)(F)F)cc1)n1nc(-c2cccc(OCc3ccccc3)c2)ccc1=O (centres unmarked) [Compound 50, 2-[3-[3-(Benzyloxy)phenyl]-6-oxo-1,6-dihydropyridazin-1-yl]-N-[4-(trifluoromethyl)phenyl]propanamide] | ++ (activity >150% of a CFTR amplifier with compound at concentration shown and amplifier at 3 μM) | ++ (activity >150% of a CFTR amplifier with compound at concentration shown and amplifier at 3 μM)
3 | COc1cccc(-c2ccc(=O)n(C(C)C(=O)Nc3ccccc3Cl)n2)c1 (centres unmarked) [Compound 12, N-(2-Chlorophenyl)-2-[3-(3-methoxyphenyl)-6-oxo-1,6-dihydropyridazin-1-yl]propanamide] | + (activity <150% of a CFTR amplifier with compound at concentration shown and amplifier at 3 μM) | + (activity <150% of a CFTR amplifier with compound at concentration shown and amplifier at 3 μM)
4 | CC(C(=O)Nc1ccc(C(F)(F)F)cc1)n1nc(-c2ccc(Cl)cc2)ccc1=O (centres unmarked) [Compound 31, 2-[3-(4-Chlorophenyl)-6-oxo-1,6-dihydropyridazin-1-yl]-N-[4-(trifluoromethyl)phenyl]propanamide] | + (activity <150% of a CFTR amplifier with compound at concentration shown and amplifier at 3 μM) | + (activity <150% of a CFTR amplifier with compound at concentration shown and amplifier at 3 μM)
5 | COc1cccc(-c2ccc(=O)n(C(C)C(=O)Nc3ccc(C(F)(F)F)c(C(F)(F)F)c3)n2)c1 (centres unmarked) [Compound 47, N-[3,4-Bis(trifluoromethyl)phenyl]-2-[3-(3-methoxyphenyl)-6-oxo-1,6-dihydropyridazin-1-yl]propanamide] | ++ (activity >150% of a CFTR amplifier with compound at concentration shown and amplifier at 3 μM) | ++ (activity >150% of a CFTR amplifier with compound at concentration shown and amplifier at 3 μM)
6 | COc1cccc(NC(=O)C(C)n2nc(-c3cccc(OC)c3)ccc2=O)c1 (centres unmarked) [Compound 6, N-(3-Methoxyphenyl)-2-[3-(3-methoxyphenyl)-6-oxo-1,6-dihydropyridazin-1-yl]propanamide] | + (activity <150% of a CFTR amplifier with compound at concentration shown and amplifier at 3 μM) | + (activity <150% of a CFTR amplifier with compound at concentration shown and amplifier at 3 μM)
7 | CC(C(=O)Nc1ccc(C(F)(F)F)cc1)n1nc(-c2ccc(C(F)(F)F)cc2)ccc1=O (centres unmarked) [Compound 34, 2-[6-Oxo-3-[4-(trifluoromethyl)phenyl]-1,6-dihydropyridazin-1-yl]-N-[4-(trifluoromethyl)phenyl]propanamide] | + (activity <150% of a CFTR amplifier with compound at concentration shown and amplifier at 3 μM) | + (activity <150% of a CFTR amplifier with compound at concentration shown and amplifier at 3 μM)
8 | CC(C(=O)Nc1cc(F)cc(F)c1)n1nc(-c2cccc(OC(F)(F)F)c2)ccc1=O (centres unmarked) [Compound 2, N-(3,5-Ddifluorophenyl)-2-[6-oxo-3-[3-(trifluoromethoxy)phenyl]-1,6-dihydropyridazin-1-yl]propanamide] | + (activity <150% of a CFTR amplifier with compound at concentration shown and amplifier at 3 μM) | + (activity <150% of a CFTR amplifier with compound at concentration shown and amplifier at 3 μM)
9 | COc1cccc(-c2ccc(=O)n(C(Cc3ccccc3)C(=O)Nc3ccc(C(F)(F)F)cc3)n2)c1 (centres unmarked) [Compound 53, 2-(3-(3-Methoxyphenyl)-6-oxopyridazin-1(6H)-yl)-3-phenyl-N-(4-(trifluoromethyl)phenyl)propanamide] | – | + (activity <150% of a CFTR amplifier with compound at concentration shown and amplifier at 3 μM)
10 | COc1cccc(-c2ccc(=O)n(C(C)C(=O)Nc3ccc(C(F)(F)F)cc3F)n2)c1 (centres unmarked) [Compound 42, N-(2-Fluoro-4-(trifluoromethyl)phenyl)-2-(3-(3-methoxyphenyl)-6-oxopyridazin-1(6H)-yl)propanamide] | ++ (activity >150% of a CFTR amplifier with compound at concentration shown and amplifier at 3 μM) | ++ (activity >150% of a CFTR amplifier with compound at concentration shown and amplifier at 3 μM)
11 | Cc1ccc(-c2ccc(=O)n(C(C)C(=O)Nc3cc(F)cc(F)c3)n2)cc1O (centres unmarked) [Compound 19, N-(3,5-Difluorophenyl)-2-[3-(3-hydroxy-4-methylphenyl)-6-oxo-1,6-dihydropyridazin-1-yl]propanamide] | – | + (activity <150% of a CFTR amplifier with compound at concentration shown and amplifier at 3 μM)
12 | COc1cccc(-c2ccc(=O)n(C(C)C(=O)Nc3ccc(Cl)c(Cl)c3)n2)c1 (centres unmarked) [Compound 27, N-(3,4-Dichlorophenyl)-2-[3-(3-methoxyphenyl)-6-oxo-1,6-dihydropyridazin-1-yl]propanamide] | ++ (activity >150% of a CFTR amplifier with compound at concentration shown and amplifier at 3 μM) | ++ (activity >150% of a CFTR amplifier with compound at concentration shown and amplifier at 3 μM)
13 | COc1cccc(-c2ccc(=O)n(C(C)(C)C(=O)Nc3cc(F)cc(F)c3)n2)c1 [Compound 18, N-(3,5-Difluorophenyl)-2-(3-(3-methoxyphenyl)-6-oxopyridazin-1(6H)-yl)-2-methylpropanamide] | + (activity <150% of a CFTR amplifier with compound at concentration shown and amplifier at 3 μM) | + (activity <150% of a CFTR amplifier with compound at concentration shown and amplifier at 3 μM)
14 | CCOc1cccc(-c2ccc(=O)n(C(C)C(=O)Nc3ccc(C(F)(F)F)cc3)n2)c1 (centres unmarked) [Compound 48, 2-[3-(3-Ethoxyphenyl)-6-oxo-1,6-dihydropyridazin-1-yl]-N-[4-(trifluoromethyl)phenyl]propanamide] | ++ (activity >150% of a CFTR amplifier with compound at concentration shown and amplifier at 3 μM) | ++ (activity >150% of a CFTR amplifier with compound at concentration shown and amplifier at 3 μM)
15 | COc1cccc(-c2ccc(=O)n(C(C)C(=O)Nc3cccc(C(F)(F)F)c3)n2)c1 (centres unmarked) [Compound 7, 2-[3-(3-Methoxyphenyl)-6-oxo-1,6-dihydropyridazin-1-yl]-N-[3-(trifluoromethyl)phenyl]propanamide] | + (activity <150% of a CFTR amplifier with compound at concentration shown and amplifier at 3 μM) | + (activity <150% of a CFTR amplifier with compound at concentration shown and amplifier at 3 μM)
16 | COc1cccc(-c2cc(C)c(=O)n(C(C)C(=O)Nc3cc(F)cc(F)c3)n2)c1 (centres unmarked) [Compound 20, N-(3,5-Difluorophenyl)-2-[3-(3-methoxyphenyl)-5-methyl-6-oxo-1,6-dihydropyridazin-1-yl]propanamide] | + (activity <150% of a CFTR amplifier with compound at concentration shown and amplifier at 3 μM) | + (activity <150% of a CFTR amplifier with compound at concentration shown and amplifier at 3 μM)
17 | COc1cccc(-c2ccc(=O)n(C(C)C(=O)Nc3ccccc3)n2)c1 (centres unmarked) [Compound 15, 2-[3-(3-Methoxyphenyl)-6-oxo-1,6-dihydropyridazin-1-yl]-N-phenylpropanamide] | + (activity <150% of a CFTR amplifier with compound at concentration shown and amplifier at 3 μM) | + (activity <150% of a CFTR amplifier with compound at concentration shown and amplifier at 3 μM)
18 | COc1cccc(-c2ccc(=O)n(C(C)C(=O)Nc3cc(C(F)(F)F)cc(C(F)(F)F)c3)n2)c1 (centres unmarked) [Compound 41, N-(3,5-Bis(trifluoromethyl)phenyl)-2-(3-(3-methoxyphenyl)-6-oxopyridazin-1(6H)-yl)propanamide] | ++ (activity >150% of a CFTR amplifier with compound at concentration shown and amplifier at 3 μM) | ++ (activity >150% of a CFTR amplifier with compound at concentration shown and amplifier at 3 μM)
19 | COc1cccc(-c2ccc(=O)n(CC(=O)Nc3cc(F)cc(F)c3)n2)c1 [Compound 16, N-(3,5-Difluorophenyl)-2-[3-(3-methoxyphenyl)-6-oxo-1,6-dihydropyridazin-1-yl]acetamide] | – | + (activity <150% of a CFTR amplifier with compound at concentration shown and amplifier at 3 μM)
